Measurements as given in ChEMBL document CHEMBL1201862, “PubChem BioAssay data set” (2004).
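Each compound was tested at five concentrations against cells in 96-well plates for 48 hours. GI50 marks 50% less growth.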 The source made the active and inactive calls. Rule as the data show it: active = GI50 up to about 1.1 µM and inactive = higher.

Assays:
Experiment in all cases: NCI-60 cell line screen, 48 h
[1] = tested on: SNB-75
[2] = tested on: SNB-19
[3] = tested on: A498
[4] = tested on: U-251
[5] = tested on: HOP-18
[6] = tested on: OVCAR-5
[7] = tested on: SF-539
[8] = tested on: Hs-578T
[9] = tested on: MDA-MB-231
[10] = tested on: HCC 2998
[11] = tested on: SF-295
[12] = tested on: MDA-N
[13] = tested on: CAKI-1
[14] = tested on: MCF7
[15] = tested on: UACC-62
[16] = tested on: 786-0
[17] = tested on: SW-620
[18] = tested on: Malme-3M
[19] = tested on: M19-MEL
[20] = tested on: DLD-1
[21] = tested on: KM12
[22] = tested on: DMS-273
[23] = tested on: M14
[24] = tested on: PC-3
[25] = tested on: NCI-H226
[26] = tested on: SN12C
[27] = tested on: NCI-H23
[28] = tested on: A549
[29] = tested on: OVCAR-3
[30] = tested on: HOP-62
[31] = tested on: UO-31
[32] = tested on: NCI-H522
[33] = tested on: HOP-92
[34] = tested on: HCT-116
[35] = tested on: COLO 205
[36] = tested on: ACHN
[37] = tested on: SF-268
[38] = tested on: CCRF-CEM
[39] = tested on: HT-29
[40] = tested on: K562
[41] = tested on: SK-MEL-28
[42] = tested on: SR
[43] = tested on: MDA-MB-435
[44] = tested on: BT-549
[45] = tested on: IGROV-1
[46] = tested on: RXF 393
[47] = tested on: KM-20L2
[48] = tested on: HCT-15
[49] = tested on: OVCAR-4
[50] = tested on: TK-10
[51] = tested on: SK-MEL-2
[52] = tested on: NCI/ADR-RES
[53] = tested on: LXFL 529
[54] = tested on: NCI-H460
[55] = tested on: OVCAR-8
[56] = tested on: T47D
[57] = tested on: RPMI-8226
[58] = tested on: LOX IMVI
[59] = tested on: UACC-257
[60] = tested on: EKVX
[61] = tested on: SK-OV-3
[62] = tested on: SK-MEL-5
[63] = tested on: XF498
[64] = tested on: DU-145
[65] = tested on: HL-60
[66] = tested on: DMS-114
[67] = tested on: MOLT-4
[68] = tested on: SNB-78

Measured: GI50

OCc1ccc(-c2ccc(-c3ccc(CO)s3)o2)s1
active: [3] 0.0151 µM | [4] 0.0646 µM | [5] 0.341 µM | [6] 0.02 µM | [10] 0.394 µM | [13] 0.0116 µM | [14] 0.0336 µM | [15] 0.0142 µM | [17] 0.224 µM | [25] 0.0375 µM | [29] 0.0703 µM | [30] 0.103 µM | [34] 0.0622 µM | [35] 0.335 µM | [39] 0.432 µM | [40] 0.596 µM | [45] 0.0373 µM | [46] 0.285 µM | [47] 0.0405 µM | [49] 0.212 µM | [50] 0.0249 µM | [53] 0.0158 µM | [54] 0.0557 µM | [56] 0.31 µM | [59] 0.0254 µM | [63] 0.0562 µM
inactive: [1] 36.6 µM | [2] 28.8 µM | [7] 14.2 µM | [8] 27.7 µM | [9] 41.4 µM | [11] 7.4 µM | [12] 5.06 µM | [16] 4.6 µM | [18] 57 µM | [19] 41.7 µM | [20] 6.05 µM | [21] 20.7 µM | [22] 1.13 µM | [23] 30 µM | [24] 44.5 µM | [26] 5.13 µM | [27] 17.9 µM | [28] 2.36 µM | [31] 35.5 µM | [32] 29.2 µM | [33] 32.6 µM | [36] 11.3 µM | [37] 49 µM | [38] 2.59 µM | [41] 42.7 µM | [42] 3.6 µM | [43] 4.05 µM | [44] 4.04 µM | [51] 23.9 µM | [52] 13.2 µM | [55] 12.1 µM | [57] 2.99 µM | [58] 21.8 µM | [60] 26.3 µM | [61] 7.06 µM | [62] 20.7 µM | [64] 6.07 µM | [65] 3.56 µM | [66] 13.4 µM | [67] 3.21 µM
8.09 µM: [48]

CC(C)C(=O)CC(c1ccc(Br)cc1)N1N=C(C(C)C)CC1c1ccc(Br)cc1 (stereo unspecified)
62.4 µM: [48]
inactive: [2] 50.7 µM | [4] 48.8 µM | [5] > 100 µM | [6] > 100 µM | [7] > 100 µM | [10] 34.2 µM | [13] > 100 µM | [17] 93.3 µM | [18] 31.4 µM | [19] 25.9 µM | [21] > 100 µM | [22] 38.1 µM | [23] 66.1 µM | [25] > 100 µM | [26] > 100 µM | [27] > 100 µM | [28] 96.8 µM | [29] 70.8 µM | [30] > 100 µM | [31] 68.7 µM | [32] 65.9 µM | [33] 31.4 µM | [34] 29.4 µM | [35] > 100 µM | [36] > 100 µM | [37] > 100 µM | [38] 30.5 µM | [39] 18.6 µM | [40] 64.4 µM | [41] > 100 µM | [42] 69 µM | [46] 16.9 µM | [47] 45.3 µM | [49] > 100 µM | [50] > 100 µM | [51] 53.6 µM | [53] > 100 µM | [54] 51.2 µM | [55] > 100 µM | [58] 55.8 µM | [60] 44.9 µM | [61] 34.5 µM | [63] 21 µM | [66] 27.9 µM | [67] 31.3 µM

N#CCCN(c1ccc(/C=N/c2nc(-c3ccccc3)cs2)cc1)S(=O)(=O)c1ccccc1
> 100 µM: [48]
inactive: [1] 19.2 µM | [2] > 100 µM | [3] 75.9 µM | [68] > 100 µM | [4] > 100 µM | [6] > 100 µM | [7] > 100 µM | [10] 64.9 µM | [11] 46.2 µM | [13] 25.8 µM | [15] 59.2 µM | [16] > 100 µM | [17] 83.8 µM | [18] > 100 µM | [19] > 100 µM | [20] 96.8 µM | [21] > 100 µM | [22] > 100 µM | [23] 81.7 µM | [26] 92.5 µM | [27] 78.9 µM | [28] 76.2 µM | [29] 39.8 µM | [30] 96.6 µM | [31] 23.6 µM | [32] 31.6 µM | [34] 75.3 µM | [35] > 100 µM | [37] 56.1 µM | [38] 48.5 µM | [39] > 100 µM | [40] 35.6 µM | [41] 85.3 µM | [45] > 100 µM | [47] > 100 µM | [49] 64.7 µM | [50] 86.5 µM | [51] 86.9 µM | [53] 56.9 µM | [55] > 100 µM | [57] 44.4 µM | [58] > 100 µM | [59] 96.4 µM | [60] 37.5 µM | [61] > 100 µM | [62] 35 µM | [63] > 100 µM | [65] 30.8 µM | [66] 39.4 µM | [67] 44.7 µM

COc1cc(/C=C/C(=O)O)ccc1C(=O)O/C=C/c1ccccc1
inactive: [1] 67 µM | [2] > 100 µM | [3] > 85.3 µM | [68] > 100 µM | [4] > 100 µM | [5] > 100 µM | [6] > 100 µM | [7] > 100 µM | [11] > 100 µM | [14] 73.5 µM | [15] > 100 µM | [17] > 100 µM | [18] > 100 µM | [19] > 81.7 µM | [20] > 100 µM | [21] > 100 µM | [22] > 100 µM | [25] > 100 µM | [26] > 100 µM | [27] > 100 µM | [28] > 100 µM | [29] > 100 µM | [30] > 100 µM | [31] > 66.7 µM | [32] > 61.9 µM | [33] > 100 µM | [34] > 72.8 µM | [35] > 100 µM | [37] > 100 µM | [38] 60.7 µM | [39] > 100 µM | [40] > 100 µM | [41] > 100 µM | [45] > 100 µM | [46] > 100 µM | [47] > 100 µM | [49] > 100 µM | [51] > 100 µM | [52] > 100 µM | [54] > 100 µM | [55] > 67.5 µM | [57] > 100 µM | [58] 73.1 µM | [59] > 100 µM | [60] > 100 µM | [61] > 100 µM | [62] > 100 µM | [63] > 100 µM | [65] 45.3 µM | [66] > 100 µM | [67] 65.9 µM
99.8 µM: [48]

O=C1CSC(C(/N=N/c2ccccc2)=C2Nc3ccccc3N2)=N1
54.6 µM: [48]
inactive: [1] 34.4 µM | [2] 31.9 µM | [3] 30.7 µM | [68] 46.8 µM | [4] 97.9 µM | [6] > 100 µM | [7] 26.4 µM | [10] > 100 µM | [11] 22.1 µM | [13] 24.9 µM | [15] 31.8 µM | [16] 25.8 µM | [17] 93.5 µM | [18] 58.3 µM | [19] 36.7 µM | [20] 64.3 µM | [21] 66.1 µM | [22] 20.1 µM | [23] 70.3 µM | [25] 13.6 µM | [26] 66.8 µM | [27] 74.5 µM | [28] 53.2 µM | [29] 27.4 µM | [30] 23.7 µM | [31] 95.7 µM | [32] 56.4 µM | [33] 18.5 µM | [34] 32.4 µM | [35] > 100 µM | [36] 31 µM | [37] 36.1 µM | [38] 5.79 µM | [39] 83.4 µM | [40] 33.5 µM | [41] 29.6 µM | [42] 12.5 µM | [45] > 100 µM | [47] > 100 µM | [49] > 100 µM | [50] > 100 µM | [51] 53.3 µM | [53] 34 µM | [54] 38.6 µM | [55] 39.1 µM | [58] 52.1 µM | [59] 24.4 µM | [60] 31.1 µM | [61] 18.3 µM | [62] 39.8 µM | [63] 27.9 µM | [65] 35.9 µM | [66] 36.1 µM | [67] 10 µM
